# Data taken from BindingDB's records for PubMed 36846363 (Al-Ahliyya Amman University, 2023).
# Assay: Antagonist activity at P2Y12 receptor in human blood platelets assessed as inhibition of ADP-induced platelet aggregation compound preincubated with blood for 5 mins prior to ADP addition by electrode aggregometry assay
row,SMILES,IC50 [µM]
1,O=C(CCC(=O)Nc1ccc2[nH]c3ccccc3c(=O)c2c1)Nc1ccc2[nH]c3ccccc3c(=O)c2c1,6.49
2,O=C(CCCCCCCC(=O)Nc1ccc2[nH]c3ccccc3c(=O)c2c1)Nc1ccc2[nH]c3ccccc3c(=O)c2c1,35
3,CCOC(=O)c1cc(NC(=O)c2cc(NC(=O)c3cc(NC(=O)c4c(-c5ccccc5)noc4C)cn3C)cn2C)cn1C,4.2
